# From patent US20100076015A1, “Aminopyridine Derivatives” (VANTIA LIMITED, priority 2008, published 2010)
# Target: T1, Human KLK1 (Homo sapiens, UniProt P06870)
# T1 construct: purchased Callbiochem (Calbiochem)
# Test: Determination of the IC50 for KLK1 (fluorogenic substrate H-DVal-Leu-Arg-AFC)
# Assay type: biochemical
# Details: 37° C.
# Procedure, shortened: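 Human KLK1 incubated at 37° C with fluorogenic substrate H-DVal-Leu-Arg-AFC and a range of test compound concentrations. Residual activity taken as initial reaction rate from absorbance change at 410 nm; IC50 derived from these rates.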
# T1 sequence (P06870 25-262): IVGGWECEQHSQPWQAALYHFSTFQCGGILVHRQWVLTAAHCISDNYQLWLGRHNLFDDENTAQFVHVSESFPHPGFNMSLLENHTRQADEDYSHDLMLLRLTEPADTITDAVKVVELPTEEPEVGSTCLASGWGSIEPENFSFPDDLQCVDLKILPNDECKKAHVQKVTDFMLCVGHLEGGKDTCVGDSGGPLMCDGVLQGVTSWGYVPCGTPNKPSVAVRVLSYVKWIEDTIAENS
row,IC50 [nM],SMILES
1,345,"CN(CC(=O)N[C@@H](Cc1ccc(F)c(F)c1)C(=O)NCc1ccc(N)nc1)Cc1cccc(Cl)c1 [Example 164, (S)—N-(6-Amino-pyridin-3-ylmethyl)-2-{2-[(3-chloro-benzyl)-methyl-amino]-acetylamino}-3-(3,4-difluoro-phenyl)-propionamide]"
2,16.1,"Nc1ccc(CNC(=O)[C@H](Cc2ccc(F)c(F)c2)NC(=O)[C@H](N)Cc2ccccc2)cn1 [Example 80, (R)-2-Amino-N-[(S)-1-[(6-amino-pyridin-3-ylmethyl)-carbamoyl]-2-(3,4-difluoro-phenyl)-ethyl]-3-phenyl-propionamide]"
3,211,"NCC(=O)N[C@@H](CC1CCCC2CCCCC21)C(=O)NCc1ccc(N)nc1 (stereo partly drawn) [Example 17, (S)-2-(2-Amino-acetylamino)-N-(6-amino-pyridin-3-ylmethyl)-3-(decahydro-naphthalen-1-yl)-propionamide]"
4,7.7,"CCN(C)[C@@H](C)C(=O)N[C@@H](Cc1ccc(F)c(F)c1)C(=O)NCc1ccc(N)nc1 [Example 345, (S)—N-[(S)-1-[(6-Amino-pyridin-3-ylmethyl)-carbamoyl]-2-(3,4-difluoro-phenyl)-ethyl]-2-(ethyl-methyl-amino)-propionamide]"
5,27.8,"CCC(C)[C@@H](N)C(=O)N[C@@H](Cc1ccccc1Cl)C(=O)NCc1ccc(N)nc1 (stereo partly drawn) [Example 24, (R)-2-Amino-3-methyl-pentanoic acid [(S)-1-[(6-amino-pyridin-3-ylmethyl)-carbamoyl]-2-(2-chloro-phenyl)-ethyl]-amide]"
6,43.7,"CCN(CC)[C@@H](CC(=O)OC)C(=O)N[C@@H](Cc1ccc(F)c(F)c1)C(=O)NCc1ccc(N)nc1 [Example 364, (S)—N-[(S)-1-[(6-Amino-pyridin-3-ylmethyl)-carbamoyl]-2-(3,4-difluoro-phenyl)-ethyl]-3-diethylamino-succinamic acid methyl ester]"
7,33.4,"Nc1ccc(CNC(=O)[C@H](Cc2ccc(Cl)c(Cl)c2)NC(=O)CN2CCCCC2)cn1 [Example 404, (S)—N-(6-Amino-pyridin-3-ylmethyl)-3-(3,4-dichloro-phenyl)-2-(2-piperidin-1-yl-acetylamino)-propionamide]"
8,46.5,"Nc1ccc(CNC(=O)[C@H](Cc2cccc(F)c2)NC(=O)c2cc3ccccc3[nH]2)cn1 [Example 311, 1H-Indole-2-carboxylic acid [(S)-1-[(6-amino-pyridin-3-ylmethyl)-carbamoyl]-2-(3-fluoro-phenyl)-ethyl]-amide]"
9,163,"Cn1c(C(=O)N[C@@H](Cc2cccc3ccccc23)C(=O)NCc2ccc(N)nc2)cc2ccccc21 [Example 306, 1-Methyl-1H-indole-2-carboxylic acid {(S)-1-[(6-amino-pyridin-3-ylmethyl)-carbamoyl]-2-naphthalen-1-yl-ethyl}-amide]"
10,1.8,"CC(C)N1CCC[C@@H]1C(=O)N[C@@H](Cc1ccc(F)cc1)C(=O)NCc1ccc(N)nc1 [Example 119, (R)-1-Isopropyl-pyrrolidine-2-carboxylic acid [(S)-1-[(6-amino-pyridin-3-ylmethyl)-carbamoyl]-2-(4-fluoro-phenyl)-ethyl]-amide]"
11,9.7,"CCN(C)[C@@H](C)C(=O)N[C@@H](CC1CCCCC1)C(=O)NCc1ccc(N)nc1 [Example 384, (S)—N-{(S)-1-[(6-Amino-pyridin-3-ylmethyl)-carbamoyl]-2-cyclohexyl-ethyl}-2-(ethyl-methyl-amino)-propionamide]"
12,14.5,"CN(C)[C@H](Cc1ccccc1)C(=O)N[C@@H](Cc1ccc(F)c(F)c1)C(=O)NCc1ccc(N)nc1 [Example 185, (R)—N-[(S)-1-[(6-Amino-pyridin-3-ylmethyl)-carbamoyl]-2-(3,4-difluoro-phenyl)-ethyl]-2-dimethylamino-3-phenyl-propionamide]"
13,59.8,"Cc1nc(N)ccc1CNC(=O)[C@H](Cc1ccc(F)c(F)c1)NC(=O)CN1CCCCC1 [Example 430, (S)—N-(6-Amino-2-methyl-pyridin-3-ylmethyl)-3-(3,4-difluoro-phenyl)-2-(2-piperidin-1-yl-acetylamino)-propionamide]"
14,15.8,"Nc1ccc(CNC(=O)[C@H](Cc2csc3ccccc23)NC(=O)c2cc3ccccc3[nH]2)cn1 [Example 335, 1H-Indole-2-carboxylic acid {(S)-1-[(6-amino-pyridin-3-ylmethyl)-carbamoyl]-2-benzo[b]thiophen-3-yl-ethyl}-amide]"
15,4.7,"CC(C)[C@H](C(=O)N[C@@H](Cc1cccc(Cl)c1)C(=O)NCc1ccc(N)nc1)N(C)C [Example 406, (R)—N-[(S)-1-[(6-Amino-pyridin-3-ylmethyl)-carbamoyl]-2-(3-chloro-phenyl)-ethyl]-2-dimethylamino-3-methyl-butyramide]"
16,3.8,"Cc1cccc(C[C@H](NC(=O)[C@H]2CCCN2C)C(=O)NCc2ccc(N)nc2)c1 [Example 105, (R)-1-Methyl-pyrrolidine-2-carboxylic acid {(S)-1-[(6-amino-pyridin-3-ylmethyl)-carbamoyl]-2-m-tolyl-ethyl}-amide]"

row,IC50 [nM],SMILES
1,7.1,"CCC(C)[C@H](C(=O)N[C@@H](Cc1cccc(Cl)c1)C(=O)NCc1ccc(N)nc1)N(C)C (stereo partly drawn) [Example 405, (R)-2-Dimethylamino-3-methyl-pentanoic acid [(S)-1-[(6-amino-pyridin-3-ylmethyl)-carbamoyl]-2-(3-chloro-phenyl)-ethyl]-amide]"
2,3.2,"Cc1cc(C)c(C(=O)N[C@@H](Cc2cccc3ccccc23)C(=O)NCc2ccc(N)nc2C)[nH]1 [Example 278, 3,5-Dimethyl-1H-pyrrole-2-carboxylic acid {(S)-1-[(6-amino-2-methyl-pyridin-3-ylmethyl)-carbamoyl]-2-naphthalen-1-yl-ethyl}-amide]"
3,12.6,"Nc1ccc(CNC(=O)[C@H](NC(=O)[C@@H]2CCCN2)C(C2CCCCC2)C2CCCCC2)cn1 [Example 215, (S)-Pyrrolidine-2-carboxylic acid {(R)-1-[(6-amino-pyridin-3-ylmethyl)-carbamoyl]-2,2-dicyclohexyl-ethyl}-amide]"
4,10.9,"Cc1cc(C)c(C(=O)N[C@@H](Cc2ccccc2)C(=O)NCc2ccc(N)nc2)[nH]1 [Example 237, 3,5-Dimethyl-1H-pyrrole-2-carboxylic acid {(S)-1-[(6-amino-pyridin-3-ylmethyl)-carbamoyl]-2-phenyl-ethyl}-amide]"
5,42.2,"CNCC(=O)N[C@@H](Cc1ccc(Cl)c(Cl)c1)C(=O)NCc1ccc(N)nc1 [Example 69, (S)—N-(6-Amino-pyridin-3-ylmethyl)-3-(3,4-dichloro-phenyl)-2-(2-methylamino-acetylamino)-propionamide]"
6,15.6,"COc1ccc2[nH]c(C(=O)N[C@@H](Cc3cccc(Cl)c3)C(=O)NCc3ccc(N)nc3)cc2c1 [Example 314, 5-Methoxy-1H-indole-2-carboxylic acid [(S)-1-[(6-amino-pyridin-3-ylmethyl)-carbamoyl]-2-(3-chloro-phenyl)-ethyl]-amide]"
7,881,"Nc1ccc(CNC(=O)[C@H](CC2CCCCC2)NC(=O)c2cc3ccccc3[nH]2)cn1 [Example 338, 1H-Indole-2-carboxylic acid {(S)-1-[(6-amino-pyridin-3-ylmethyl)-carbamoyl]-2-cyclohexyl-ethyl}-amide]"
8,83.5,"CN(CC(=O)N[C@@H](Cc1ccc(F)c(F)c1)C(=O)NCc1ccc(N)nc1)Cc1ccccc1Cl [Example 165, (S)—N-(6-Amino-pyridin-3-ylmethyl)-2-{2-[(2-chloro-benzyl)-methyl-amino]-acetylamino}-3-(3,4-difluoro-phenyl)-propionamide]"
9,12.7,"Nc1ccc(CNC(=O)[C@H](Cc2ccc(F)c(F)c2)NC(=O)CN2CCc3ccccc3C2)cn1 [Example 172, (S)—N-(6-Amino-pyridin-3-ylmethyl)-3-(3,4-difluoro-phenyl)-2-(2-3,4-dihydro-1H-isoquinolin-2-yl-acetylamino)-propionamide]"
10,10.4,"CCC(C)[C@H](C(=O)N[C@@H](Cc1ccc(F)c(F)c1)C(=O)NCc1ccc(N)nc1)N(C)C (stereo partly drawn) [Example 358, (R)-2-Dimethylamino-3-methyl-pentanoic acid [(S)-1-[(6-amino-pyridin-3-ylmethyl)-carbamoyl]-2-(3,4-difluoro-phenyl)-ethyl]-amide]"
11,5.1,"CN(C)[C@@H](C(=O)N[C@@H](Cc1ccc(F)cc1)C(=O)NCc1ccc(N)nc1)C(C)(C)C [Example 183, (R)—N-[(S)-1-[(6-Amino-pyridin-3-ylmethyl)-carbamoyl]-2-(4-fluoro-phenyl)-ethyl]-2-dimethylamino-3,3-dimethyl-butyramide]"
12,20.5,"Cc1cc[nH]c1C(=O)N[C@@H](Cc1cc(Cl)ccc1Cl)C(=O)NCc1ccc(N)nc1 [Example 263, 3-Methyl-1H-pyrrole-2-carboxylic acid [(S)-1-[(6-amino-pyridin-3-ylmethyl)-carbamoyl]-2-(2,5-dichloro-phenyl)-ethyl]-amide]"
13,6.6,"CCC(C)[C@@H](N)C(=O)N[C@@H](Cc1c[nH]c2ccccc12)C(=O)NCc1ccc(N)nc1 (stereo partly drawn) [Example 40, (R)-2-Amino-3-methyl-pentanoic acid [(S)-1-[(6-amino-pyridin-3-ylmethyl)-carbamoyl]-2-(1H-indol-3-yl)-ethyl]-amide]"
14,0.7,"Nc1ccc(CNC(=O)[C@H](Cc2ccc(Cl)c(Cl)c2)NC(=O)[C@H]2CCCN2)cn1 [Example 55, (R)-Pyrrolidine-2-carboxylic acid [(S)-1-[(6-amino-pyridin-3-ylmethyl)-carbamoyl]-2-(3,4-dichloro-phenyl)-ethyl]-amide]"
15,10.5,"Nc1ccc(CNC(=O)[C@H](Cc2ccc(Cl)c(Cl)c2)NC(=O)[C@H]2CCCN2Cc2ccccc2)cn1 [Example 7, (R)-1-Benzyl-pyrrolidine-2-carboxylic acid [(S)-1-[(6-amino-pyridin-3-ylmethyl)-carbamoyl]-2-(3,4-dichloro-phenyl)-ethyl]-amide]"
16,8.8,"CN(C)[C@@H](Cc1ccccc1)C(=O)N[C@@H](Cc1ccc(F)c(F)c1)C(=O)NCc1ccc(N)nc1 [Example 351, (S)—N-[(S)-1-[(6-Amino-pyridin-3-ylmethyl)-carbamoyl]-2-(3,4-difluoro-phenyl)-ethyl]-2-dimethylamino-3-phenyl-propionamide]"
